{
  "source": "patent US11980674B2",
  "about": "“Imaging of metastatic or recurrent cancer” (Blue Earth Diagnostics Limited, priority 2020, dated 2024)",
  "key": {"[1]": {"conditions": "human, in vivo", "procedure": "FIGS. 1a and 1b show accumulation of FACBC in the Virchow's node when the FACBC is injected into the left arm.\nIn some embodiments, the right arm may be preferred as stasis in the axillary vein upon injection in the left arm may be misinterpreted as a metastatic lymph node called Virchow's node, which is located in the left supraclavicular fossa (the area above the left clavicle, or collar bone). For example, FIGS. 1a and 1b show accumulation of FACBC in the Virchow's node when the FACBC is injected into the left arm."}, "[2]": {"system": "known prostate carcinoma recurrence", "assay": "PET time activity curves (FIG. 3)", "type": "in vivo, human", "conditions": "for time at which plateau was reached: remained constant throughout the imaging period", "procedure": "Regions in marrow (ilium), muscle (gluteus), and bladder reached a plateau at 4.5 minutes that remained constant throughout the imaging period."}},
  "data": [
    {"smiles": "N[C@]1(C(=O)O)C[C@@H](F)C1", "note": "[fluciclovine, anti-1-amino-3-^18F-fluorocyclobutane-1-carboxylic acid]", "values": [
      {"measurement": "standardized uptake value (SUV)", "setting": "[1]", "result": "> 200"},
      {"measurement": "time at which plateau was reached", "setting": "[2]; bladder", "result": 4.5, "unit": "min"},
      {"measurement": "time of maximum uptake", "setting": "[2]; known prostate carcinoma recurrence", "result": 4.5, "unit": "min"},
      {"measurement": "plateau of uptake lasting to", "setting": "[2]; known prostate carcinoma recurrence, after maximum at 4.5 minutes", "result": 30, "unit": "min"},
      {"measurement": "gradual clearance", "setting": "[2]; known prostate carcinoma recurrence, after plateau, out to 60 minutes", "result": 9, "unit": "%/min"},
      {"measurement": "time at which plateau was reached", "setting": "[2]; marrow (ilium)", "result": 4.5, "unit": "min"},
      {"measurement": "time at which plateau was reached", "setting": "[2]; muscle (gluteus)", "result": 4.5, "unit": "min"}
    ]}
  ]
}
